Experimental data from PubChem BioAssay (NCI).
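Compound exposure: 48 hours, 5 concentrations, 96-well plates. The concentration for full growth arrest is given as TGI.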

Columns and labels:
Experiment in all cases: inhibition of tumour cell growth, NCI panel, 48 h
[1] = tested on: HOP-92 NSCLC
[2] = tested on: RXF 393 renal
[3] = tested on: MCF7 breast
[4] = tested on: MDA-MB-231 breast
[5] = tested on: COLO 205 colon
[6] = tested on: MOLT-4 leukemia
[7] = tested on: SF-295 CNS
[8] = tested on: 786-0 renal
[9] = tested on: NCI-H226 lung
[10] = tested on: NCI-H522 lung
[11] = tested on: SF-539 CNS

How did the TGI [1] turn out when `CC(C)CCNC(=O)c1ccc(CNC(=O)/C=C/c2ccc(OCc3ccccc3)cc2)cc1` was run?
The TGI was > 100 µM.

And the TGI [2]?
The TGI was > 100 µM.

What about the TGI [3] of the same compound?
The TGI was > 100 µM.

What about the TGI [4] of the same compound?
The TGI was > 100 µM.

What about the TGI [5] of the same compound?
The TGI was > 100 µM.

What about the TGI [6] of the same compound?
The TGI was > 100 µM.

What about the TGI [7] of the same compound?
Its TGI is > 100 µM.

And the TGI [8]?
The TGI was > 100 µM.

What about the TGI [9] of the same compound?
Its TGI is > 100 µM.

Which TGI [10] does the source give for `CC(=O)CC(=O)c1cc2c(=O)oc(C)cc2oc1=O` here?
Its TGI is > 37.5 µM.

And the TGI [2]?
The TGI was > 37.5 µM.

What about the TGI [11] of the same compound?
The TGI was > 37.5 µM.

And the TGI [3]?
Its TGI is > 37.5 µM.

What about the TGI [5] of the same compound?
Its TGI is > 37.5 µM.

And the TGI [6]?
The TGI was > 37.5 µM.

What about the TGI [7] of the same compound?
The TGI was > 37.5 µM.

What about the TGI [8] of the same compound?
Its TGI is > 37.5 µM.

And the TGI [9]?
Its TGI is > 37.5 µM.

Which results are given for `CC1=CC=CC(C)(C)CC1(O[Si](C)(C)C)C(F)(F)F` (stereo unspecified)?
TGI [10]: > 100 µM; TGI [1]: > 100 µM; TGI [2]: > 100 µM; TGI [11]: > 100 µM; TGI [3]: > 100 µM; TGI [4]: > 100 µM; TGI [5]: > 100 µM; TGI [7]: > 100 µM; TGI [8]: > 100 µM; TGI [9]: > 100 µM

For `CCN(CCCN(CC)C(=O)N[C@@H](Cc1ccccc1)C(=O)NC)C(=O)N[C@@H](Cc1ccccc1)C(=O)NC`, which TGI [10] is on record?
The TGI was > 100 µM.

What about the TGI [1] of the same compound?
Its TGI is > 100 µM.

What about the TGI [2] of the same compound?
The TGI was > 100 µM.

What about the TGI [11] of the same compound?
Its TGI is > 100 µM.

And the TGI [4]?
Its TGI is > 100 µM.

And the TGI [5]?
Its TGI is > 100 µM.

What about the TGI [7] of the same compound?
Its TGI is > 100 µM.

And the TGI [8]?
Its TGI is > 100 µM.

What about the TGI [9] of the same compound?
The TGI was > 100 µM.

For `O=C(O[C@H](/C=C/c1ccccc1)P1(=O)N(Cc2ccccc2)[C@@H]2CCCC[C@H]2N1Cc1ccccc1)c1ccccc1`, which TGI [10] is on record?
Its TGI is > 100 µM.

And the TGI [1]?
Its TGI is 6.72 µM.

What about the TGI [11] of the same compound?
Its TGI is 22.2 µM.

What about the TGI [3] of the same compound?
Its TGI is > 100 µM.

What about the TGI [4] of the same compound?
The TGI was 21 µM.

What about the TGI [5] of the same compound?
Its TGI is 5.08 µM.

What about the TGI [7] of the same compound?
Its TGI is > 100 µM.

And the TGI [8]?
The TGI was 42 µM.

What about the TGI [9] of the same compound?
The TGI was 7.98 µM.

Which results are given for `O=C1CC(c2ccc([N+](=O)[O-])cc2)C2(C(=O)NC(=S)NC2=O)C(c2ccc([N+](=O)[O-])cc2)C1` (stereo unspecified)?
TGI [10]: 36.4 µM; TGI [1]: > 100 µM; TGI [11]: > 100 µM; TGI [3]: 43.8 µM; TGI [4]: 37.3 µM; TGI [5]: > 100 µM; TGI [6]: > 100 µM; TGI [7]: 60.1 µM; TGI [8]: 87.7 µM; TGI [9]: 36.9 µM

Which results are given for `O=C(OCc1ccccc1)OOC(=O)OCc1ccccc1`?
TGI [10]: > 100 µM; TGI [1]: > 100 µM; TGI [2]: > 100 µM; TGI [11]: > 100 µM; TGI [5]: > 100 µM; TGI [6]: > 100 µM; TGI [7]: > 100 µM

`CC(C)(CO)N1C(=O)c2ccccc2C1(O)c1ccc(Cl)cc1` (stereo unspecified) was tested. Which TGI [10] did it give?
Its TGI is > 100 µM.

And the TGI [2]?
The TGI was > 100 µM.

And the TGI [3]?
Its TGI is > 100 µM.

What about the TGI [4] of the same compound?
The TGI was > 100 µM.

What about the TGI [5] of the same compound?
Its TGI is > 100 µM.

And the TGI [6]?
The TGI was > 100 µM.

What about the TGI [7] of the same compound?
The TGI was > 100 µM.

And the TGI [8]?
Its TGI is > 100 µM.

What about the TGI [9] of the same compound?
The TGI was > 100 µM.

`N#Cc1c(OCCF)c2ccccc2n2c1nc1ccccc12` was tested. Which TGI [10] did it give?
Its TGI is > 100 µM.

What about the TGI [2] of the same compound?
Its TGI is > 100 µM.

What about the TGI [11] of the same compound?
Its TGI is 52.3 µM.

And the TGI [3]?
Its TGI is > 100 µM.

And the TGI [4]?
Its TGI is > 100 µM.

What about the TGI [5] of the same compound?
The TGI was > 100 µM.

What about the TGI [6] of the same compound?
Its TGI is > 100 µM.

And the TGI [7]?
The TGI was > 100 µM.

What about the TGI [9] of the same compound?
The TGI was > 100 µM.

Which TGI [1] does the source give for `CC(=O)/C(=C/n1c(=S)sc2ccccc21)C(=O)Nc1ccccc1C` here?
The TGI was > 100 µM.

What about the TGI [2] of the same compound?
The TGI was > 100 µM.

What about the TGI [11] of the same compound?
Its TGI is > 100 µM.

What about the TGI [3] of the same compound?
The TGI was > 100 µM.

And the TGI [4]?
The TGI was > 100 µM.

What about the TGI [5] of the same compound?
The TGI was > 100 µM.

And the TGI [6]?
The TGI was > 100 µM.

What about the TGI [7] of the same compound?
The TGI was > 100 µM.

What about the TGI [8] of the same compound?
The TGI was > 100 µM.

What about the TGI [9] of the same compound?
The TGI was > 100 µM.

What does the source list for `Nc1ncnc2c1ncn2C(=O)NC12CC3CC(CC(C3)C1)C2`?
TGI [1]: > 100 µM; TGI [2]: > 100 µM; TGI [11]: > 100 µM; TGI [3]: > 100 µM; TGI [4]: > 100 µM; TGI [5]: > 100 µM; TGI [6]: > 100 µM; TGI [7]: > 100 µM; TGI [8]: > 100 µM; TGI [9]: > 100 µM
